Experiments:
[1] = test system: T-Rex 293 cell line SC3 cells having increased expression of androgen receptor protein due to exposure to doxycycline; assay: Cellular growth inhibition, T-Rex 293 SC3 cells with doxycycline (androgen receptor induced), CellTiter-Glo; assay type: cell-based; details: T-Rex 293 SC3 cells with 10 ng/mL doxycycline (increased androgen receptor expression), 72 hours
Summary of the method: (§1)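 Cells of clone SC3 are seeded in charcoal-dextran-stripped serum medium with or without 10 ng/mL doxycycline to induce wild-type androgen receptor. After 24 h, serial compound dilutions are added at 0.5% DMSO and incubated 72 h at 37 °C. CellTiter-Glo 2.0 measures viability, giving GI50 values.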

[2] = test system: T-Rex 293 cell line SC3 cells lacking increased expression of androgen receptor protein; assay: Cellular growth inhibition, T-Rex 293 SC3 cells without doxycycline, CellTiter-Glo; assay type: cell-based; details: T-Rex 293 SC3 cells not exposed to doxycycline; 72 hours; CellTiter-Glo 2.0
Summary of the method: as §1

| SMILES | GI50 [1] [nM] | GI50 [2] [nM] |
| --- | --- | --- |
| Cc1sc2c(c1C)C(c1ccc(N3CC(N4CCN(c5ncc(C(=O)N[C@H]6C(C)(C)[C@H](Oc7ccc(C#N)c(Cl)c7)C6(C)C)cn5)CC4)C3)cc1)=NC(Cc1ncco1)c1nnc(C)n1-2 (stereo partly shown) [Compound I-208] | < 500 | < 500 |
| Cc1sc2c(c1C)C(c1ccc(CC3CC4(CCN(c5ccc(C(=O)N[C@H]6C(C)(C)[C@H](Oc7ccc(C#N)c(Cl)c7)C6(C)C)cn5)CC4)C3)cc1)=N[C@@H](Cc1ncco1)c1nnc(C)n1-2 [Compound I-143] | < 500 | < 500 |
